The source of these data is PubChem BioAssay (NCI).

Some test systems named below: ACHN renal; SN12C renal; UACC-62 melanoma; NCI-H522 lung; K-562 leukemia; KM12 colon; HCC-2998 colon; COLO 205 colon; NCI-H460 lung; EKVX NSCLC.
What all share (test): NCI anticancer screen, dose series, 48 h

Each structure is given as a SMILES string.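 Growth conditions: 96-well plates. Treatment: test compound, 48 hours, 5 concentrations. Analysis: linear interpolation between bracketing concentrations; unreached endpoints set to highest concentration. GI50 = concentration required for 50% inhibition of growth. TGI marks complete inhibition of growth.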

In the case of `CCN(CC)c1ccc(/C=C/C=C2\NC(=O)NC2=O)cc1`, the GI50 is 7.24 µM in the assay with ACHN renal; 9.41 µM with SN12C renal; 3.95 µM with UACC-62 melanoma; 0.92 µM with NCI-H522 lung; 3.7 µM in the assay on K-562 leukemia; 1.85 µM with KM12 colon. In addition, the GI50 with HCC-2998 colon was 2.44 µM; in the assay on COLO 205 colon it was 3.22 µM; with NCI-H460 lung, 3.03 µM; with EKVX NSCLC it was 3.77 µM. The TGI was more than 100 µM with ACHN renal; more than 100 µM with SN12C renal; more than 100 µM in the assay with UACC-62 melanoma; 4.11 µM with NCI-H522 lung; more than 100 µM in the assay with K-562 leukemia; 21.3 µM in the assay with KM12 colon. Besides, the TGI is 29.1 µM with HCC-2998 colon, 16.2 µM in the assay with COLO 205 colon, 16.1 µM in the assay on NCI-H460 lung and more than 100 µM with EKVX NSCLC.
For the compound `CCC[CH2][Sn]1([CH2]CCC)[O]CC(C)[O]1` (configuration not stated), the GI50 is 1.54 µM in the assay on ACHN renal; 1.39 µM in the assay on SN12C renal; 1.31 µM in the assay with UACC-62 melanoma; 0.306 µM in the assay with NCI-H522 lung; 0.367 µM in the assay on K-562 leukemia; 2.1 µM with KM12 colon. The GI50 was 1.46 µM in the assay on HCC-2998 colon, 1.01 µM in the assay on COLO 205 colon, 2.94 µM in the assay with NCI-H460 lung and 1.83 µM with EKVX NSCLC. Besides, the TGI stood at 2.89 µM with ACHN renal; 2.78 µM in the assay with SN12C renal; 2.91 µM with UACC-62 melanoma; 1.07 µM with NCI-H522 lung; 1.97 µM in the assay on K-562 leukemia; 6.23 µM in the assay on KM12 colon. Besides, the TGI in the assay on HCC-2998 colon was found to be 2.91 µM; in the assay on COLO 205 colon, 2.29 µM; in the assay with NCI-H460 lung, 13.9 µM; in the assay on EKVX NSCLC it was 4 µM.
In the case of `C=CC1=C(C)C2=NC1=CC1=NC(=C(CC)/C1=C\O)C=C1N=C3C(=C1C)C(=O)[C@H](C(=O)OC)C3=C1NC(=C2)[C@@H](C)[C@@H]1CCC(=O)O`, the TGI in the assay with ACHN renal, in the assay on SN12C renal, with UACC-62 melanoma, in the assay with NCI-H522 lung, in the assay with K-562 leukemia and in the assay with KM12 colon was more than 100 µM throughout. Further, the TGI in the assay on HCC-2998 colon, in the assay on COLO 205 colon, in the assay on NCI-H460 lung and in the assay on EKVX NSCLC was more than 100 µM throughout.
In the case of `Cc1cc(C(=O)c2ccccc2)c(C)c2c1[nH]c1ccc(Cl)cc12`, the GI50 was 0.0669 µM in the assay on ACHN renal; 0.117 µM with SN12C renal; 0.0399 µM in the assay on UACC-62 melanoma; 0.0267 µM in the assay with NCI-H522 lung; 0.0348 µM in the assay with K-562 leukemia; 0.045 µM in the assay on KM12 colon. In addition, the GI50 in the assay with HCC-2998 colon is 0.176 µM; in the assay with COLO 205 colon it was 0.102 µM; in the assay with NCI-H460 lung it was 0.041 µM; in the assay with EKVX NSCLC, 0.126 µM. Also, the TGI in the assay with ACHN renal is 15.5 µM; with SN12C renal, 14.3 µM; in the assay with UACC-62 melanoma, 18.7 µM; with NCI-H522 lung, 4.9 µM; in the assay with K-562 leukemia, more than 100 µM; in the assay on KM12 colon, 7.23 µM. The TGI with HCC-2998 colon is 8.14 µM; in the assay on COLO 205 colon, 1.36 µM; in the assay on NCI-H460 lung, 14.7 µM; in the assay with EKVX NSCLC, more than 100 µM.
Turning to `O=[N+]([O-])c1ccc(C=NC23CC4CC(CC(C4)C2)C3)cc1`, the TGI in the assay on ACHN renal, in the assay on SN12C renal, with UACC-62 melanoma, with NCI-H522 lung, with K-562 leukemia and in the assay on KM12 colon was more than 100 µM in each case. In addition, the TGI with HCC-2998 colon, in the assay with COLO 205 colon, in the assay with NCI-H460 lung and in the assay on EKVX NSCLC was more than 100 µM throughout.
Regarding `CC(=O)c1nc2ccccc2n1CC(=O)c1cccc(Cl)c1`, the GI50 was 1.08 µM in the assay with ACHN renal; 0.838 µM in the assay on SN12C renal; 0.416 µM in the assay on UACC-62 melanoma; 0.0846 µM in the assay with NCI-H522 lung; 0.113 µM with K-562 leukemia; 0.779 µM with KM12 colon. Besides, the GI50 was 1.5 µM in the assay with HCC-2998 colon, 16.1 µM in the assay on COLO 205 colon, 0.36 µM with NCI-H460 lung and 4.33 µM with EKVX NSCLC. The TGI with ACHN renal was more than 100 µM; in the assay with SN12C renal, more than 100 µM; in the assay with UACC-62 melanoma, 7.29 µM; with NCI-H522 lung it was 0.719 µM; in the assay with K-562 leukemia, more than 44.1 µM; in the assay with KM12 colon, more than 43.4 µM. Moreover, the TGI is more than 79.1 µM with COLO 205 colon and more than 100 µM in the assay with EKVX NSCLC.
For `CN1C/C(=C\C=C\c2ccccc2)C(=O)/C(=C/C=C/c2ccccc2)C1`, the TGI in the assay on ACHN renal, with SN12C renal, in the assay on UACC-62 melanoma, with NCI-H522 lung, in the assay on K-562 leukemia and with KM12 colon was more than 100 µM each time. In addition, the TGI in the assay with HCC-2998 colon, in the assay with COLO 205 colon, in the assay with NCI-H460 lung and in the assay on EKVX NSCLC was more than 100 µM throughout.
Consider `CC(C)(C)c1ccc(NS(=O)(=O)c2ccc3nc(NC(=O)c4cnccn4)[nH]c3c2)cc1`, for which the GI50 was 2.21 µM in the assay on ACHN renal; 3.85 µM with SN12C renal; 1.11 µM with UACC-62 melanoma; 1.64 µM in the assay on NCI-H522 lung; 2.38 µM in the assay on K-562 leukemia; 2.16 µM in the assay with KM12 colon. Further, the GI50 with HCC-2998 colon was 5.19 µM; in the assay on COLO 205 colon, 4.1 µM; in the assay with NCI-H460 lung it was 2.59 µM; with EKVX NSCLC it was 5.01 µM. Further, the TGI in the assay on ACHN renal was 7.63 µM; in the assay on SN12C renal, 15.9 µM; in the assay on UACC-62 melanoma, 13.2 µM; with NCI-H522 lung, 13.6 µM; in the assay on K-562 leukemia, more than 100 µM; with KM12 colon it was 13.9 µM. The TGI came to 18.9 µM with HCC-2998 colon, 20.9 µM in the assay with COLO 205 colon, 11 µM with NCI-H460 lung and 18.3 µM with EKVX NSCLC.
Take `Cc1ccc(-c2cc(O)c(-c3ccc(C)cc3C)cc2O)c(C)c1`: the GI50 in the assay with ACHN renal is 8.17 µM; in the assay on SN12C renal it was 5.38 µM; with UACC-62 melanoma, 4.23 µM; in the assay on NCI-H522 lung, 4.67 µM; in the assay on K-562 leukemia, 5.1 µM; with KM12 colon, 8.2 µM. The GI50 with HCC-2998 colon is 9.37 µM; with COLO 205 colon, 10.2 µM; with NCI-H460 lung it was 0.923 µM; in the assay with EKVX NSCLC, 5.45 µM. Besides, the TGI was 23 µM in the assay with ACHN renal; 18.8 µM in the assay on SN12C renal; 19.8 µM with UACC-62 melanoma; 16.3 µM in the assay on NCI-H522 lung; more than 100 µM with K-562 leukemia; 26.8 µM in the assay with KM12 colon. Besides, the TGI came to 21.9 µM in the assay with HCC-2998 colon, 24.6 µM in the assay on COLO 205 colon, 15.2 µM with NCI-H460 lung and 37.3 µM in the assay on EKVX NSCLC.
For the compound `N#CC1C=Cc2c(ccc3ccccc23)N1C(=O)c1ccccc1` (configuration not stated), the GI50 with ACHN renal was 0.352 µM; with SN12C renal it was 1.15 µM; with UACC-62 melanoma, 0.243 µM; in the assay with NCI-H522 lung, 0.0274 µM; with K-562 leukemia, 0.0537 µM; with KM12 colon, 0.141 µM. The GI50 was 0.43 µM with HCC-2998 colon, 0.251 µM in the assay with COLO 205 colon, 0.191 µM with NCI-H460 lung and 0.31 µM in the assay with EKVX NSCLC. In addition, the TGI in the assay with ACHN renal was more than 100 µM; in the assay on SN12C renal, more than 100 µM; in the assay with UACC-62 melanoma, more than 100 µM; in the assay on NCI-H522 lung, 0.0924 µM; in the assay on K-562 leukemia, more than 100 µM; with KM12 colon, 3.98 µM. Also, the figures for the TGI in the assay on HCC-2998 colon, with COLO 205 colon and in the assay with NCI-H460 lung were more than 47.6 µM, 0.706 µM and 7.56 µM, respectively.
